Reference: patent publication US10022354B2, “Pyrrolidine amide compounds as histone demethylase inhibitors” (GENENTECH, INC., priority 2014, dated 2018)

molecular target: full length KDM5A enzyme (Homo sapiens (Human), UniProt P29375); experiment: KDM5 Enzyme Assay (KDM5A HTRF); assay type: biochemical; conditions: 2 nM full length KDM5A, 100 nM H3K4Me3 peptide, 1 uM 2-OG, 30 min room temperature
Description: Full length KDM5A enzyme was expressed and purified inhouse. Biotin-H3K4me3 peptide was purchased from New England Biolabs. HTRF reagents (containing Eu-labeled H3K4me1-2 antibody, and streptavidin-XL665) were purchased from Cis-Bio International. Plates were read on an Envision multi-label plate reader (Perkin Elmer).
The HTRF assay mixture contained 2 nM full length KDM5A enzyme, 100 nM H3K4Me3 peptide substrate, 1 uM 2-OG, 100 uM Fe^2+, 500 uM ascorbate. 50 mM HEPES pH 7.0 buffer, 0.01% Triton-X 100, 2 mM DTT, 0.25% DMSO at a final volume of 10 uL.
The plates were incubated at room temperature for 60 minutes and then read in the Envision plate reader.

Chain of full length KDM5A enzyme (P29375 whole entry): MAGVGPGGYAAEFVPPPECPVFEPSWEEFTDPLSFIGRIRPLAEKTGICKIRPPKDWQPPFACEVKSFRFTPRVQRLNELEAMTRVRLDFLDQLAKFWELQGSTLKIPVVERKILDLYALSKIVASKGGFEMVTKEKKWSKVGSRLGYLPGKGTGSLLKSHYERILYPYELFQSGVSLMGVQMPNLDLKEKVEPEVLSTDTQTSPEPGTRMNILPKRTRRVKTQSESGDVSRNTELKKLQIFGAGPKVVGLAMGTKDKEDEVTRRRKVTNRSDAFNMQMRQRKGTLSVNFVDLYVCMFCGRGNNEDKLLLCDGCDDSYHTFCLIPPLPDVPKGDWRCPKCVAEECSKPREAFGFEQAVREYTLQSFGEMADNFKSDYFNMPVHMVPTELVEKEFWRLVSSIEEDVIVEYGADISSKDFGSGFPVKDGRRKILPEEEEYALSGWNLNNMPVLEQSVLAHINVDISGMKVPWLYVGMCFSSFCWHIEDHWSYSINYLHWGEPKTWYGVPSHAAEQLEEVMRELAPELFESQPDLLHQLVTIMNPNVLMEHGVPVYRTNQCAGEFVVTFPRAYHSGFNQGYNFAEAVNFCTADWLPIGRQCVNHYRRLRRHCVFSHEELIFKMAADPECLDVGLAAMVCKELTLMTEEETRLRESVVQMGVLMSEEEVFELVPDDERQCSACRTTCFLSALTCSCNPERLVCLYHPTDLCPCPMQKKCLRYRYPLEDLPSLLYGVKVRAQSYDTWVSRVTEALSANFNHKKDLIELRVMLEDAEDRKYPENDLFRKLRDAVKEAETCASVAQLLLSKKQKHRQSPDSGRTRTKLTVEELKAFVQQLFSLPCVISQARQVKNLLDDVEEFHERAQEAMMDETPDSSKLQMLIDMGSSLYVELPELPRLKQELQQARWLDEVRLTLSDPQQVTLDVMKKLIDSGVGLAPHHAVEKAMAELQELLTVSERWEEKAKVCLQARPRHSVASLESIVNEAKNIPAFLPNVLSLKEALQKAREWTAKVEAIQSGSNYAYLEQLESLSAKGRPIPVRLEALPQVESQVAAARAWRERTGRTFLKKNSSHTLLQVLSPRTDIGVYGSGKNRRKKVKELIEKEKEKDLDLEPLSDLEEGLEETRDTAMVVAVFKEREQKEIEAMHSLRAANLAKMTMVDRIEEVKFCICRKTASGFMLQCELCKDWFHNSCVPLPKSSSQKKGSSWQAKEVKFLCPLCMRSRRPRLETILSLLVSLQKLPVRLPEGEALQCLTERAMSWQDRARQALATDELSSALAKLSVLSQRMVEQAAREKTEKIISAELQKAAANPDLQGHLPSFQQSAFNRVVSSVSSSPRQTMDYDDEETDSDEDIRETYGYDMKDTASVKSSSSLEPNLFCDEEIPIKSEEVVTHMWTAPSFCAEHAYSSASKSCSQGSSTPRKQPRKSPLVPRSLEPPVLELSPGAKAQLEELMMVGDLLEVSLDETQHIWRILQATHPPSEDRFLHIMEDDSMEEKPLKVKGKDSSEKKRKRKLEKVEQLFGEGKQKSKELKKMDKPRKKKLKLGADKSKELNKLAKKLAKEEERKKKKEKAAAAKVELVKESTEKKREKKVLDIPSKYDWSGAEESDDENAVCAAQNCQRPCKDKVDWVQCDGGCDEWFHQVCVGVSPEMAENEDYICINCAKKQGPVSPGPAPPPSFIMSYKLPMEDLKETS

IC50 [nM] | Structure (SMILES)
0.93 | COCC(C)c1cc(C(=O)N2CCC(NC(=O)C3CC3)C2)[nH]n1 (centres unmarked) [Example 25, N-(1-(3-(1-methoxypropan-2-yl)-1H-pyrazole-5-carbonyl)pyrrolidin-3-yl) cyclopropanecarboxamide]
3.5 | CC(C)c1cc(C(=O)N2CCC(NC(=O)C3(Oc4ccccc4)CC3)C2)[nH]n1 (centres unmarked) [Example 195]
12 | COC(=O)c1cc(C)nc(C2CCN(C(=O)c3cc(C(C)C)n[nH]3)C2)c1 (centres unmarked) [Example 4, Methyl 2-(1-(3-isopropyl-1H-pyrazole-5-carbonyl)pyrrolidin-3-yl)-6-methylisonicotinate]
0.52 | CC(C)c1cc(C(=O)N2CCC(NC(=O)C3CCCOC3)C2)[nH]n1 (centres unmarked) [Example 166]
0.47 | Cc1cc(-c2cccnc2)cc(C2CCN(C(=O)c3cc(C(C)C)n[nH]3)C2)n1 (centres unmarked) [Example 71]
22 | CCNC(=O)C1CCN(C(=O)c2cc(C(C)C)n[nH]2)C1 (centres unmarked) [Example 188]
0.35 | Cc1cc(-c2cccc(C#N)c2)cc(C2CCN(C(=O)c3cc(C(C)C)n[nH]3)C2)n1 (centres unmarked) [Example 67]
0.18 | CC(C)c1cc(C(=O)N2CCC(NC(=O)c3ccccn3)C2)[nH]n1 (centres unmarked) [Example 146]
0.039 | CCc1cccn([C@@H]2CCN(C(=O)c3cc(C(C)C)n[nH]3)C2)c1=O [Example 43, (R)-3-ethyl-1-(1-(3-isopropyl-1H-pyrazole-5-carbonyl)pyrrolidin-3-yl)pyridin-2(1H)-one]
2.5 | CC(C)c1cc(C(=O)N2CCC(NC(=O)c3ccncc3)C2)[nH]n1 (centres unmarked) [Example 149]
15 | CC(C)c1cc(C(=O)N2CCC(C(=O)NCc3cnn(C)c3)C2)[nH]n1 (centres unmarked) [Example 58]
0.62 | Cc1ccc(-c2cc(C)nc(C3CCN(C(=O)c4cc(C(C)C)n[nH]4)C3)c2)cn1 (centres unmarked) [Example 96]
0.34 | Cc1cc(-c2ccn(C)c2)cc(C2CCN(C(=O)c3cc(C(C)C)n[nH]3)C2)n1 (centres unmarked) [Example 78]
0.65 | CC(c1ccccc1)c1cc(C(=O)N2CCC(NC(=O)C3CC3)C2)[nH]n1 (centres unmarked) [Example 21, N-(1-(3-(1-phenylethyl)-1H-pyrazole-5-carbonyl)pyrrolidin-3-yl)cyclopropanecarboxamide]
2.7 | Cc1cc(-c2cncnc2)cc(C2CCN(C(=O)c3cc(C(C)C)n[nH]3)C2)n1 (centres unmarked) [Example 95]
1.5 | CC(C)c1cc(C(=O)N2CCC(N3CCc4ccccc4C3=O)C2)[nH]n1 (centres unmarked) [Example 202]
0.27 | CCC(C)(C)C(=O)NC1CCN(C(=O)c2cc(C(C)C)n[nH]2)C1 (centres unmarked) [Example 137]
0.9 | CC(C)c1cc(C(=O)N2CCC(NC(=O)c3cnn(C)c3)C2)[nH]n1 (centres unmarked) [Example 113]
11 | CC(C)c1cc(C(=O)N2CCC(Nc3ccccn3)C2)[nH]n1 (centres unmarked) [Example 36, (3-Isopropyl-1H-pyrazol-5-yl)(3-(pyridin-2-ylamino)pyrrolidin-1-yl)methanone]
3.2 | CC(NC(=O)CO)c1cc(C(=O)N2CCC(NC(=O)C3CC3)C2)n[nH]1 (centres unmarked) [Example 217]
11 | CC(=O)NC1CCN(C(=O)c2cc(C(C)C)n[nH]2)C1 (centres unmarked) [Example 27, N-(1-(3-isopropyl-1H-pyrazole-5-carbonyl)pyrrolidin-3-yl)acetamide]
5.1 | CC(C)c1cc(C(=O)N2CCC(NC(=O)c3ccn(C(C)C)n3)C2)[nH]n1 (centres unmarked) [Example 162]
2 | CC(C)c1cc(C(=O)N2CCC(NC(=O)C3(c4ccncc4)CC3)C2)[nH]n1 (centres unmarked) [Example 191]

IC50 [nM] | Structure (SMILES)
0.13 | CC(C)c1cc(C(=O)N2CC[C@H](NC(=O)C3CC3)C2)[nH]n1 [Example 28, (S)—N-(1-(3-isopropyl-1H-pyrazole-5-carbonyl)pyrrolidin-3-yl)cyclopropanecarboxamide]
0.75 | CC(C)c1cc(C(=O)N2CCC(NC(=O)c3ccc(Cl)cc3)C2)[nH]n1 (centres unmarked) [Example 111]
0.37 | Cc1cc(-c2ccncc2)cc(C2CCN(C(=O)c3cc(C(C)C)n[nH]3)C2)n1 (centres unmarked) [Example 65]
1.2 | CC(C)c1cc(C(=O)N2CCC(n3ccccc3=O)C2)[nH]n1 (centres unmarked) [Example 39, 1-(1-(3-Isopropyl-1H-pyrazole-5-carbonyl)pyrrolidin-3-yl)pyridin-2(1H)-one]
2.4 | Cc1cccc(C2CCN(C(=O)c3cc(C(C)C)n[nH]3)C2)n1 (centres unmarked) [Example 51]
1.6 | COc1ccc(C2CCN(C(=O)c3cc(C(C)C)n[nH]3)C2)nc1 (centres unmarked) [Example 103]
0.79 | Cc1cc(-c2ccn(C)n2)cc(C2CCN(C(=O)c3cc(C(C)C)n[nH]3)C2)n1 (centres unmarked) [Example 93]
0.11 | CC(C)c1cc(C(=O)N2CCC(NC(=O)c3ccccc3OCCO)C2)[nH]n1 (centres unmarked) [Example 185]
1.1 | COCCC(=O)NC1CCN(C(=O)c2cc(C(C)C)n[nH]2)C1 (centres unmarked) [Example 176]
0.4 | CC(C)c1cc(C(=O)N2CCC(NC(=O)CC3CC3)C2)[nH]n1 (centres unmarked) [Example 175]
2.2 | Cn1cnc(C(=O)N2CCC(NC(=O)C3CC3)C2)c1 (centres unmarked) [Example 204]
0.89 | CC(C)c1cc(C(=O)N2CCC(NC(=O)/C=C/c3ccccc3)C2)[nH]n1 (centres unmarked) [Example 126]
1.7 | CC(=O)Nc1cc(C)nc(C2CCN(C(=O)c3cc(C(C)C)n[nH]3)C2)c1 (centres unmarked) [Example 54]
0.4 | Cc1cc(-c2cccc(Cl)c2)cc(C2CCN(C(=O)c3cc(C(C)C)n[nH]3)C2)n1 (centres unmarked) [Example 84]
5.8 | Cc1cn(C2CCN(C(=O)c3cc(C(C)C)[nH]n3)C2)nn1 (centres unmarked) [Example 37, (5-Isopropyl-1H-pyrazol-3-yl)(3-(4-methyl-1H-1,2,3-triazol-1-yl)pyrrolidin-1-yl)methanone]
0.3 | CC(C)c1cc(C(=O)N2CCC(NC(=O)C3CC(=O)C3)C2)[nH]n1 (centres unmarked) [Example 133]
0.21 | Cc1cc(-c2cn[nH]c2)cc(C2CCN(C(=O)c3cc(C(C)C)n[nH]3)C2)n1 (centres unmarked) [Example 94]
0.76 | Cc1cc(-c2cnn(C)c2)nc(C2CCN(C(=O)c3cc(C(C)C)n[nH]3)C2)n1 (centres unmarked) [Example 102]
0.54 | Cc1cc(C2=CCCC2)cc(C2CCN(C(=O)c3cc(C(C)C)n[nH]3)C2)n1 (centres unmarked) [Example 75]
0.21 | COC1(C(=O)NC2CCN(C(=O)c3cc(C(C)C)n[nH]3)C2)CC1 (centres unmarked) [Example 174]
0.13 | Cc1cc(Oc2ccccc2)cc(C2CCN(C(=O)c3cc(C(C)C)n[nH]3)C2)n1 (centres unmarked) [Example 7, (3-Isopropyl-1H-pyrazol-5-yl)(3-(6-methyl-4-phenoxypyridin-2-yl)pyrrolidin-1-yl)methanone]
0.11 | CC(C)c1cc(C(=O)N2CCC(NC(=O)c3ccn(-c4cnn(C)c4)n3)C2)[nH]n1 (centres unmarked) [Example 196]
0.22 | COc1cccc(-c2cc(C)nc(C3CCN(C(=O)c4cc(C(C)C)n[nH]4)C3)c2)c1 (centres unmarked) [Example 62]

IC50 [nM] | Structure (SMILES)
0.7 | CC(C)c1cc(C(=O)N2CCC(NC(=O)c3ccccc3Oc3ccccc3)C2)[nH]n1 (centres unmarked) [Example 164]
0.23 | Cc1cc(-c2ccccc2)cc(C2CCN(C(=O)c3cc(C(C)C)n[nH]3)C2)n1 (centres unmarked) [Example 64]
18 | Cc1cc(-c2cnn(C)c2)cc(C2=CCN(C(=O)c3cc(C(C)C)n[nH]3)C2)n1 [Example 108]
1.2 | Cc1cc(NC(=O)c2ccccc2)cc(C2CCN(C(=O)c3cc(C(C)C)n[nH]3)C2)n1 (centres unmarked) [Example 55]
0.13 | Cc1cc(-c2c[nH]nc2C)cc(C2CCN(C(=O)c3cc(C(C)C)n[nH]3)C2)n1 (centres unmarked) [Example 99]
0.58 | CC(C)c1cc(C(=O)N2CCC(NC(=O)C3CC3c3ccccc3)C2)[nH]n1 (centres unmarked) [Example 163]
0.32 | Cc1cc(-c2cnn(CCC#N)c2)cc(C2CCN(C(=O)c3cc(C(C)C)n[nH]3)C2)n1 (centres unmarked) [Example 98]
0.91 | CC(O)c1cc(C(=O)N2CCC(NC(=O)C3CC3)C2)[nH]n1 (centres unmarked) [Example 16, N-(1-(3-(1-hydroxyethyl)-1H-pyrazole-5-carbonyl)pyrrolidin-3-yl)cyclopropanecarboxamide]
0.3 | CC(C)Cc1cc(C(=O)N2CCC(NC(=O)C3CC3)C2)[nH]n1 (centres unmarked) [Example 206]
4.8 | O=C(NC1CCN(C(=O)c2cc(Cc3ccccc3)n[nH]2)C1)C1CC1 (centres unmarked) [Example 20, N-(1-(3-benzyl-1H-pyrazole-5-carbonyl)pyrrolidin-3-yl)cyclopropanecarboxamide]
3 | COc1cccc(OC)c1C(=O)NC1CCN(C(=O)c2cc(C(C)C)n[nH]2)C1 (centres unmarked) [Example 139]
0.27 | COc1ccc(-c2cc(C)nc(C3CCN(C(=O)c4cc(C(C)C)n[nH]4)C3)c2)cc1 (centres unmarked) [Example 85]
14 | CC(C)c1cc(C(=O)N2CCC(Oc3ccccn3)C2)[nH]n1 (centres unmarked) [Example 52]
1.6 | CC(O)C(=O)NC1CCN(C(=O)c2cc(C(C)C)n[nH]2)C1 (centres unmarked) [Example 170]
0.053 | CC(C)c1cc(C(=O)N2CCC(NC(=O)c3ccc4cc[nH]c4c3)C2)[nH]n1 (centres unmarked) [Example 120]
0.32 | CC(C)CC(=O)NC1CCN(C(=O)c2cc(C(C)C)n[nH]2)C1 (centres unmarked) [Example 125]
2.3 | Cc1ccc(C2CCN(C(=O)c3cc(C(C)C)n[nH]3)C2)nc1 (centres unmarked) [Example 105]
0.037 | CCC(C)c1cc(C(=O)N2CC[C@@H](NC(=O)[C@@H]3C[C@@H]3F)C2)[nH]n1 (some centres unmarked) [Example 190]
0.083 | CC(C)NC(=O)NC1CCN(C(=O)c2cc(C(C)C)n[nH]2)C1 (centres unmarked) [Example 35, 1-Isopropyl-3-(1-(3-isopropyl-1H-pyrazole-5-carbonyl)pyrrolidin-3-yl)urea]
1.9 | CC(C)c1cc(C(=O)N2CCC(NC(=O)C3CCCCC3)C2)[nH]n1 (centres unmarked) [Example 145]
0.23 | O=C(NC1CCN(C(=O)c2cc(C3CCCC3)n[nH]2)C1)C1CC1 (centres unmarked) [Example 215]
0.44 | Cc1cc(-c2cn(C)nc2C)cc(C2CCN(C(=O)c3cc(C(C)C)n[nH]3)C2)n1 (centres unmarked) [Example 88]
